PubChem BioAssay (NCI)
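Values below derive from 48-hour exposures of cells grown in 96-well plates, with endpoints linearly interpolated between the two concentrations bracketing the appropriate inhibition level. TGI: concentration producing complete growth inhibition.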

How the values were obtained:
Assay in all cases: NCI anticancer screen, dose series, 48 h
MDA-N = system: MDA-N
NCI-H522 lung = system: NCI-H522 lung
TK-10 renal = system: TK-10 renal
OVCAR-5 ovarian = system: OVCAR-5 ovarian
SR leukemia = system: SR leukemia
NCI-H460 lung = system: NCI-H460 lung
SW-620 colon = system: SW-620 colon
MCF7 breast = system: MCF7 breast
IGROV1 ovarian = system: IGROV1 ovarian
SF-295 CNS = system: SF-295 CNS
MDA-MB-231 breast = system: MDA-MB-231 breast
OVCAR-3 ovarian = system: OVCAR-3 ovarian
HL-60(TB) leukemia = system: HL-60(TB) leukemia
SF-539 CNS = system: SF-539 CNS
MDA-MB-435 = system: MDA-MB-435
HS 578T breast = system: HS 578T breast
HCT-15 colon = system: HCT-15 colon
OVCAR-8 ovarian = system: OVCAR-8 ovarian
MALME-3M melanoma = system: MALME-3M melanoma
SF-268 CNS = system: SF-268 CNS
SNB-19 CNS = system: SNB-19 CNS
KM12 colon = system: KM12 colon
SNB-75 CNS = system: SNB-75 CNS
A549 NSCLC = system: A549 NSCLC
COLO 205 colon = system: COLO 205 colon
T-47D breast = system: T-47D breast
SK-MEL-2 melanoma = system: SK-MEL-2 melanoma
UO-31 renal = system: UO-31 renal
HCT-116 colon = system: HCT-116 colon
HCC-2998 colon = system: HCC-2998 colon
NCI-H226 lung = system: NCI-H226 lung
M14 melanoma = system: M14 melanoma
CAKI-1 renal = system: CAKI-1 renal
HT29 colon = system: HT29 colon
BT-549 breast = system: BT-549 breast
UACC-257 melanoma = system: UACC-257 melanoma
PC-3 prostate = system: PC-3 prostate
K-562 leukemia = system: K-562 leukemia
HOP-62 NSCLC = system: HOP-62 NSCLC
786-0 renal = system: 786-0 renal
DU-145 prostate = system: DU-145 prostate
SK-OV-3 ovarian = system: SK-OV-3 ovarian
A498 renal = system: A498 renal
NCI/ADR-RES ovarian = system: NCI/ADR-RES ovarian
NCI-H23 lung = system: NCI-H23 lung
ACHN renal = system: ACHN renal
SK-MEL-28 melanoma = system: SK-MEL-28 melanoma
U251 CNS = system: U251 CNS
SN12C renal = system: SN12C renal
UACC-62 melanoma = system: UACC-62 melanoma
SK-MEL-5 melanoma = system: SK-MEL-5 melanoma
CCRF-CEM leukemia = system: CCRF-CEM leukemia
MOLT-4 leukemia = system: MOLT-4 leukemia
EKVX NSCLC = system: EKVX NSCLC
RPMI-8226 leukemia = system: RPMI-8226 leukemia
OVCAR-4 ovarian = system: OVCAR-4 ovarian
RXF 393 renal = system: RXF 393 renal
LOX IMVI melanoma = system: LOX IMVI melanoma

Measured: TGI

CN(C)CCOc1ccc([N+](=O)[O-])c2cccnc12
not listed: EKVX NSCLC | RPMI-8226 leukemia | OVCAR-4 ovarian | RXF 393 renal | LOX IMVI melanoma
> 100 µM: all other assays above

ONC1=Nc2cc(Cl)ccc2C(=S)N2CSCC12 (stereo not drawn)
not listed: HL-60(TB) leukemia | SF-539 CNS | NCI-H23 lung
> 100 µM: all other assays above
